Key:
ΔF508-CFTR [1] = biological target: T1, ΔF508-CFTR (Homo sapiens, UniProt P13569, DEL508-508); assay: CFTR cell surface levels using HRP-tagged ΔF508-CFTR expressing CFBE cells, intrinsic corrector capacity; assay type: cell-based; design: % Activation: concentration or dose not given beside the values; settings: HRP-tagged ΔF508-CFTR expressing CFBE41o- cells, compound alone (intrinsic corrector capacity), 20 hours at 33° C.; for EC50: read-out: EC50
T1 construct: host or cells: CFBE41o-, doxycycline-inducible
In short: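 Read-out: chemiluminescent HRP activity of ECL4-HRP-tagged ΔF508-CFTR at the cell surface, 15 min substrate in dark. Normalized as 100×(sample−DMSO)/(positive control−DMSO).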

ΔF508-CFTR [2] = biological target: T1, ΔF508-CFTR; assay: CFTR cell surface levels using HRP-tagged ΔF508-CFTR expressing CFBE cells, in the presence of a co-corrector; assay type: cell-based; settings: HRP-tagged ΔF508-CFTR CFBE cells, in the presence of 3 μM co-corrector; for EC50: read-out: EC50
In short: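 Chemiluminescent read-out of surface HRP (15 min, dark) after PBS washes. Activity is normalized as 100×(sample−DMSO)/(3 μM co-corrector alone−DMSO).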

T1 sequence (P13569 with tags, fused parts or gaps DEL508-508): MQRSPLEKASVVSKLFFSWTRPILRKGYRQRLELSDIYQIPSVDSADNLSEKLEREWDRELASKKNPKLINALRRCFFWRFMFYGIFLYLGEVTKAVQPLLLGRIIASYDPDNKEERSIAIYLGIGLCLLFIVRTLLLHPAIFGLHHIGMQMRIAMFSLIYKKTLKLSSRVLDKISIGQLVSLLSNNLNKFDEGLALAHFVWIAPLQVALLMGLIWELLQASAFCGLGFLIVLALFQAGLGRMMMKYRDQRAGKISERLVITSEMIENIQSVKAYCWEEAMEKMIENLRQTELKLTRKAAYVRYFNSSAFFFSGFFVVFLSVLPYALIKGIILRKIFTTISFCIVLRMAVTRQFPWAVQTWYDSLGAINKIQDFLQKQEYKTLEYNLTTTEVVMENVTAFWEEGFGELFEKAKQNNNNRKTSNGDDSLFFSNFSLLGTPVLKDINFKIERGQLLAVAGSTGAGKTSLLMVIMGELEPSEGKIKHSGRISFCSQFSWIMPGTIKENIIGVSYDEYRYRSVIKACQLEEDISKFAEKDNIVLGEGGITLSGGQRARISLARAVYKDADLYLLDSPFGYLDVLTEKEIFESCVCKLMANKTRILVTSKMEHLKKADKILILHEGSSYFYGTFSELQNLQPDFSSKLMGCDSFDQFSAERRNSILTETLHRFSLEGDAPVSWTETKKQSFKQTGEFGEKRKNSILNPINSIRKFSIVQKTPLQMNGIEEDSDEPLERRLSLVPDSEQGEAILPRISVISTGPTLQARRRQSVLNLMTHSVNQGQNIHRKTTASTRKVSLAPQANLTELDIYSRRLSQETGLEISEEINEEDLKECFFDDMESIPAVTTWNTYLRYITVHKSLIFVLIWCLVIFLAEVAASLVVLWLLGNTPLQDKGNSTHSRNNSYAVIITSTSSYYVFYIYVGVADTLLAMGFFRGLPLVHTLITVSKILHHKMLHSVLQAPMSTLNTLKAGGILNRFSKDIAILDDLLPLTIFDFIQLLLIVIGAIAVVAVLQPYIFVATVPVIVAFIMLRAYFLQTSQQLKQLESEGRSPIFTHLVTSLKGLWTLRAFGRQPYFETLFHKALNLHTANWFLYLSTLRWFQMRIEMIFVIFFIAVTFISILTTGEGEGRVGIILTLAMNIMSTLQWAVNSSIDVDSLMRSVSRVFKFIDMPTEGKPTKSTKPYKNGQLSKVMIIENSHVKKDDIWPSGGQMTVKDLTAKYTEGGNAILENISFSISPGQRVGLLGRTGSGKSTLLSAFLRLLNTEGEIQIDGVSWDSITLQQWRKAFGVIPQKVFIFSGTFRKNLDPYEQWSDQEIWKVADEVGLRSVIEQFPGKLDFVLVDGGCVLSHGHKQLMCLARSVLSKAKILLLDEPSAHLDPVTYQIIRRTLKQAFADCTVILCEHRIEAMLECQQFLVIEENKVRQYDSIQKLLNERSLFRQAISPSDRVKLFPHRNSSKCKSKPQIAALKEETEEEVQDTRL

SMILES | % Activation (ΔF508-CFTR [1]) [%] | EC50 (ΔF508-CFTR [1]) [nM] | % Activation (ΔF508-CFTR [2]) [%] | EC50 (ΔF508-CFTR [2]) [nM]
COCCS(=O)(=O)NC(=O)c1cc(-c2ccc(N3CCOCC3)cc2)c2cnn(-c3ccccc3)c2n1 [Compound 233, N-(2-methoxyethanesulfonyl)-4-[4-(morpholin-4-yl)phenyl]-1-phenyl-1H-pyrazolo[3,4-b]pyridine-6-carboxamide] | 58.34 | 2440 | 206.57 | 1930
CCOC(=O)N1CCC(NS(=O)(=O)NC(=O)c2cc(N3CCC(CN4CCCC4)CC3)c3c(C4CCC4)nn(-c4ccccc4)c3n2)CC1 [Compound 457, ethyl 4-{[(3-cyclobutyl-1-phenyl-4-{4-[(pyrrolidin-1-yl)methyl]piperidin-1-yl}-1H-pyrazolo[3,4-b]pyridine-6-carbonyl)sulfamoyl]amino}piperidine-1-carboxylate] | 272.2 | 128 | 508 | 139
CCS(=O)(=O)NC(=O)c1cc(N2CCC(N3CCCCC3)CC2)c2c(C3CCC3)nn(-c3ccc(F)cc3)c2n1 [Compound 478, 4-([1,4'-bipiperidin]-1'-yl)-3-cyclobutyl-N-(ethanesulfonyl)-1-(4-fluorophenyl)-1H-pyrazolo[3,4-b]pyridine-6-carboxamide] | 295.4 | 2640 | 476.7 | 127
COC1CCN(C2CCN(c3cc(C(=O)NS(C)(=O)=O)nc4c3c(OC(C)C)nn4-c3ccc(F)cc3)CC2)CC1 [Compound 644, 1-(4-fluorophenyl)-N-(methanesulfonyl)-4-(4-methoxy[1,4'-bipiperidin]-1'-yl)-3-[(propan-2-yl)oxy]-1H-pyrazolo[3,4-b]pyridine-6-carboxamide] | 266.9 | 253 | 529.95 | 160
CCS(=O)(=O)NC(=O)c1cc(-c2ccc(N3CCOCC3)nc2)c2c(C)nn(C3CCCCC3)c2n1 [Compound 48, 1-cyclohexyl-N-(ethanesulfonyl)-3-methyl-4-[6-(morpholin-4-yl)pyridin-3-yl]-1H-pyrazolo[3,4-b]pyridine-6-carboxamide] | 160.9 | 1200 | 417.8 | 1150
Cc1nn(-c2cccc(C(F)(F)F)c2)c2nc(C(=O)NS(C)(=O)=O)cc(-c3ccc(N(C)C)cc3)c12 [Compound 26, 4-[4-(dimethylamino)phenyl]-N-(methanesulfonyl)-3-methyl-1-[3-(trifluoromethyl)phenyl]-1H-pyrazolo[3,4-b]pyridine-6-carboxamide] | 202.25 | 1850 | 449.7 | 1550
COCCOCC1(F)CCCN(c2cc(C(=O)NS(C)(=O)=O)nc3c2c(C(C)C)nn3-c2ccc(F)cc2)C1 (stereo not drawn) [Compound 346, 4-{3-fluoro-3-[(2-methoxyethoxy)methyl]piperidin-1-yl}-1-(4-fluorophenyl)-N-(methanesulfonyl)-3-(propan-2-yl)-1H-pyrazolo[3,4-b]pyridine-6-carboxamide] | 195.8 | 308 | 375.1 | 253
O=C(NS(=O)(=O)C1CC1)c1cc(N2CCC(N3CCOCC3)CC2)c2c(C3CCC3)nn(-c3ccccc3)c2n1 [Compound 436, 3-cyclobutyl-N-(cyclopropanesulfonyl)-4-[4-(morpholin-4-yl)piperidin-1-yl]-1-phenyl-1H-pyrazolo[3,4-b]pyridine-6-carboxamide] | 393.3 | 344 | 568.6 | 71.1
CC(C)c1nn(-c2cccc(N(C)C)c2)c2nc(C(=O)NS(C)(=O)=O)cc(-c3ccc(N(C)C4CCOCC4)nc3)c12 [Compound 89, 1-[3-(dimethylamino)phenyl]-N-(methanesulfonyl)-4-{6-[methyl(oxan-4-yl)amino]pyridin-3-yl}-3-(propan-2-yl)-1H-pyrazolo[3,4-b]pyridine-6-carboxamide] | 422.78 | 646 | 609.48 | 396
CCN(C)S(=O)(=O)NC(=O)c1cc(N2CCC(N3CCOCC3)CC2)c2c(C3CCC3)nn(-c3ccc(F)cc3)c2n1 [Compound 483, 3-cyclobutyl-N-[ethyl(methyl)sulfamoyl]-1-(4-fluorophenyl)-4-[4-(morpholin-4-yl)piperidin-1-yl]-1H-pyrazolo[3,4-b]pyridine-6-carboxamide] | 212.7 | 84.9 | 438.2 | 56.1
COCC1CCN(c2cc(C(=O)NS(=O)(=O)N3CCOCC3)nc3c2c(C2CCC2)nn3-c2ccc(F)cc2)CC1 [Compound 671, 3-cyclobutyl-1-(4-fluorophenyl)-4-[4-(methoxymethyl)piperidin-1-yl]-N-(morpholine-4-sulfonyl)-1H-pyrazolo[3,4-b]pyridine-6-carboxamide] | 252.95 | 274 | 346.1 | 107
CCS(=O)(=O)NC(=O)c1cc(N2CCCCC2)c2c(C(C)C)nn(-c3cccc(C)c3)c2n1 [Compound 102, N-(ethanesulfonyl)-1-(3-methylphenyl)-4-(piperidin-1-yl)-3-(propan-2-yl)-1H-pyrazolo[3,4-b]pyridine-6-carboxamide] | 233.9 | 897 | 458.75 | 537
COCCN1CCN(C2CCN(c3cc(C(=O)NS(=O)(=O)N(C)C)nc4c3c(C3CCC3)nn4-c3ccc(F)cc3)CC2)CC1 [Compound 607, 3-cyclobutyl-N-(dimethylsulfamoyl)-1-(4-fluorophenyl)-4-{4-[4-(2-methoxyethyl)piperazin-1-yl]piperidin-1-yl}-1H-pyrazolo[3,4-b]pyridine-6-carboxamide] | 272.6 | 342 | 484.3 | 667
CC(C)c1nn(-c2ccc(F)cc2)c2nc(C(=O)NS(C)(=O)=O)cc(N3CCNC(C(F)(F)F)C3)c12 (stereo not drawn) [Compound 339, 1-(4-fluorophenyl)-N-(methanesulfonyl)-3-(propan-2-yl)-4-[3-(trifluoromethyl)piperazin-1-yl]-1H-pyrazolo[3,4-b]pyridine-6-carboxamide] | 142.05 | 1400 | 295.5 | 402
COCC1CCN(c2cc(C(=O)N3CCCS3(=O)=O)nc3c2c(C2CCC2)nn3-c2ccccc2)CC1 [Compound 667, 2-{3-cyclobutyl-4-[4-(methoxymethyl)piperidin-1-yl]-1-phenyl-1H-pyrazolo[3,4-b]pyridine-6-carbonyl}-1λ^6,2-thiazolidine-1,1-dione] | 75.435 | 208 | 225.5 | 85.5
CS(=O)(=O)NC(=O)c1cc(C2CCN(CCC(F)(F)F)CC2)c2c(C3CCC3)nn(-c3ccc(F)cc3)c2n1 [Compound 603, 3-cyclobutyl-1-(4-fluorophenyl)-N-(methanesulfonyl)-4-[1-(3,3,3-trifluoropropyl)piperidin-4-yl]-1H-pyrazolo[3,4-b]pyridine-6-carboxamide] | 136.2 | 283 | 344.65 | 156
CCS(=O)(=O)NC(=O)c1cc(-c2ccc(OC)cc2)c2c(C)nn(-c3cccc(C)c3)c2n1 [Compound 28, N-(ethanesulfonyl)-4-(4-methoxyphenyl)-3-methyl-1-(3-methylphenyl)-1H-pyrazolo[3,4-b]pyridine-6-carboxamide] | 149.7 | 1220 | 354.45 | 942
CS(=O)(=O)NC(=O)c1cc(N2CC3CC3C2)c2c(C3CCC3)nn(-c3ccccc3)c2n1 (stereo not drawn) [Compound 186, 4-(3-azabicyclo[3.1.0]hexan-3-yl)-3-cyclobutyl-N-(methanesulfonyl)-1-phenyl-1H-pyrazolo[3,4-b]pyridine-6-carboxamide] | 209.57 | 616 | 381.87 | 531
CCS(=O)(=O)NC(=O)c1cc(-c2ccc(N(C)C3CCOCC3)nc2)c2c(C(C)C)nn(C3CCCCC3)c2n1 [Compound 90, 1-cyclohexyl-N-(ethanesulfonyl)-4-{6-[methyl(oxan-4-yl)amino]pyridin-3-yl}-3-(propan-2-yl)-1H-pyrazolo[3,4-b]pyridine-6-carboxamide] | 163.75 | 486 | 384.95 | 389
CC(C)N(C)S(=O)(=O)NC(=O)c1cc(N2CCC(N3CCOCC3)CC2)c2c(C3CCC3)nn(-c3ccc(F)cc3)c2n1 [Compound 482, 3-cyclobutyl-1-(4-fluorophenyl)-N-[methyl(propan-2-yl)sulfamoyl]-4-[4-(morpholin-4-yl)piperidin-1-yl]-1H-pyrazolo[3,4-b]pyridine-6-carboxamide] | 214.1 | 88.2 | 436.4 | 61.6
COC1CN(C2CCN(c3cc(C(=O)NS(C)(=O)=O)nc4c3c(C3CCC3)nn4-c3ccc(F)cc3)CC2)C1 [Compound 585, 3-cyclobutyl-1-(4-fluorophenyl)-N-(methanesulfonyl)-4-[4-(3-methoxyazetidin-1-yl)piperidin-1-yl]-1H-pyrazolo[3,4-b]pyridine-6-carboxamide] | 316.6 | 1240 | 509.7 | 248

Source: patent publication US10259810B2, “N-sulfonylated pyrazolo[3,4-b]pyridin-6-carboxamides and method of use” (AbbVie S.à.r.l., priority 2015, dated 2019)
